Assay results published in patent US20050144654A1, “Procedure for screening of neuroactive substance and the associated neural plasticity” (COUNCIL OF SCIENTIFIC & INDUSTRIAL RESEARCH, priority 2003, published 2005).
Where a name gives a salt, the structure may show the parent alone. Marks after values point to notes of the source that are not given here.

Assays:
[1] = tested on: Drosophila melanogaster adult males (wild type Oregon-R strain); experiment: Negative geotaxis assay (height climbed, climbing speed); type: in vivo; conditions: for Height climbed by flies, Mean / Climbing speed of flies, Mean: n=30
Protocol: (§1) Unless otherwise mentioned, standard methods of fly manipulation were followed. Standard fly medium consisting of agar-agar, maize powder, brown sugar, dried yeast and nipagin was used. Flies were cultured at 22±1° C., 60% RH, and 12 hrs light (9 AM to 9 PM) and 12 hours dark cycle. D. melanogaster wild type Oregon-R strain was used in the experiment. To obtain males for control and drug treatment, flies from identical cultures grown in glass vials were first allowed to lay eggs in milk bottles containing medium. Flies were shifted to fresh bottles every 12 hr. First 4 sets of bottles were discarded. Flies that emerged in subsequent bottles were only used. Those that emerged in the beginning were first discarded and then flies were collected twice at 12 hr interval. Flies collected each time were kept separately in a single bottle. Two days after first collection, males and females from both the bottles were separated. Males were then pooled together and shifted to a new bottle. Flies were used for control or drug treatment two days later.
(§2) Following morning after pooling males for treatment, drugs (Sigma-Aldrich Co, St. Louis, U.S.A.) were first dissolved in distilled water at following concentration: 33.3 mg/ml of strychnine (STR), 40 mg/ml of pentylenetetrazol (PTZ), 20 mg/ml of pilocarpine-hydrochloride (PILO), 20 mg/ml of tetraethylammonium chloride (TEA), 10 mg/ml of lithium chloride (LICA), and 10.5 mg/ml of ethosuximide (ESD). Appropriate volume of freshly made drug solutions were then poured in molten fly media, and mixed thoroughly, to achieve a final concentration of 3.33 mg/ml of STR, 4 mg/ml of PTZ, 2 mg/ml of PILO, 2 mg/ml of TEA, 1 mg/ml of LICA, and 1.05 mg/ml of ESD. For control, i.e., normal food (NF), distilled water of same volume as drug solution was added in the medium and mixed. Following this, the molten media was dispensed in glass vials, stored overnight at 4° C. and then used for above treatment of flies. Thirty male flies were shifted to each of the seven treatment vials, NF, STR, PTZ, PILO, TEA, LICA and ESD. Flies were maintained at 22±1° C., 60% RH, and 12 hrs light (9 AM to 9 PM) and 12 hours dark cycle.
(§3) Negative geotaxis assays for measuring height climbed and climbing speed, and horizontal locomotion assay for measuring distance walked—were performed at room temperature, between 9 AM to 9 PM. They were all performed at a specified area in a room, where same light sources were always used. While measuring various locomotor activities, extreme care was taken to ensure that the room is quiet, and the table onto which assays were performed undisturbed and vibration free. Utmost care was taken to ensure identical handling of flies, in minutest details. For measuring height climbed, climbing speed and distance walked, a single fly was randomly selected at a time. This was achieved by first inverting flies from a given treatment vial into an empty vial and then continuously and gently shaking and inverting both the vials in such a way that a single fly is finally trapped in the empty vial. Once trapped, all the three locomotor activities were measured using the same fly, height climbed, climbing speed and distance walked, in that order. One fly each from NF, STR, PTZ, PILO, TEA, LICA, and ESD, selected randomly, was first scored and then the same exercise was repeated for another two flies. Once a fly was scored for all the three locomotor activities, it was discarded. Flies were particularly checked for intact legs and wings, before they were used in negative geotaxis and horizontal locomotion assays.
(§4) A glass tube of 1.7 cm diameter and […], along with two cotton plugs were used in negative geotaxis and horizontal locomotion assays. The tube was length wise marked with lines at every cm. Three flies from each treatment were assayed. Each fly was assayed 10 times in succession.

[2] = tested on: Drosophila melanogaster adult males (wild type Oregon-R strain); experiment: Horizontal locomotion assay (distance walked); type: in vivo; conditions: for Distance walked by flies, Mean: n=30; for distance walked than the control: 31 day of drug withdrawal, result in words
Protocol: as §1, §2, §3, §4

[3] = 4th day after drug withdrawal (21st day of beginning of treatment)
[4] = 31st day after drug withdrawal (48th day of beginning of treatment)
[5] = 31st day after drug withdrawal, result in words
[6] = day 7 of the beginning of treatment, drug in fly medium
[7] = day 7 of the beginning of treatment, result in words

Compound	Height climbed by flies, Mean [1, 3]	Climbing speed of flies, Mean ([1]; 4th day after drug withdrawal)	height climbed compared to NF ([1]; 4th day after drug withdrawal, result in words)	Height climbed by flies, Mean [1, 4]	Climbing speed of flies, Mean ([1]; 31st day after drug withdrawal)	climbing speed than the control (Table 2) [1, 5]	Climbing speed, Mean [1, 6]	Height climbed, Mean [1, 6]	height climbed compared to NF, the control [1, 7]	Distance walked by flies, Mean ([2]; 4th day after drug withdrawal)	Distance walked by flies, Mean ([2]; 31st day after drug withdrawal)	Distance walked, Mean [2, 6]	distance walked than the control [2]	Climbing speed, Mean ([1]; 168 h)	Height climbed, Mean ([1]; 168 h)	Distance walked, Mean ([2]; 168 h)
CCC1(C)CC(=O)NC1=O (centres unmarked) [ESD, ethosuximide]	32.66*** cm	1.5*** cm/sec	increase	19.5*** cm	1.52*** cm/sec	greater	0.98 cm/s	25.66* cm	increase	40.16*** cm marks crossed per minute	30.63 cm marks crossed per minute	37.1 cm marks crossed per minute	–	–	–	–
[Cl-].[Li+] [LICA, lithium chloride]	25.33 cm	1.22* cm/sec	–	11.4* cm	1.3*** cm/sec	lower	1.9*** cm/sec	35.8*** cm	increase	33*** cm marks crossed per minute	6.93*** cm marks crossed per minute	34.23 cm marks crossed per minute	lesser	–	–	–
CC[C@@H]1C(=O)OC[C@@H]1Cc1cncn1C [PILO, pilocarpine-hydrochloride]	19.96 cm	1.32** cm/sec	–	16.46 cm	1.14** cm/sec	–	1.52*** cm/sec	34.66*** cm	increase	33.83** cm marks crossed per minute	21.16 cm marks crossed per minute	48.53*** cm marks crossed per minute	–	–	–	–
C1CCc2nnnn2CC1 [PTZ, pentylenetetrazol]	–	1.25** cm/sec	–	–	1.37*** cm/sec	lower	–	–	increase	28.03*** cm marks crossed per minute	12.5* cm marks crossed per minute	–	lesser	1.63*** cm/sec	29.13*** cm	42.5** cm marks crossed per minute
O=C1C[C@@H]2OCC=C3CN4CC[C@]56c7ccccc7N1[C@H]5[C@H]2[C@H]3C[C@H]46 [STR, strychnine]	26.26 cm	1.29** cm/sec	–	15.8 cm	1.04* cm/sec	–	1.53*** cm/sec	33.36*** cm	–	43.66 cm marks crossed per minute	27.66 cm marks crossed per minute	39.33* cm marks crossed per minute	–	–	–	–
CC[N+](CC)(CC)CC.[Cl-] [TEA, tetraethylammonium chloride]	22.13 cm	1.11 cm/s	–	16.2 cm	–	–	1.67*** cm/sec	32*** cm	increase	26.76*** cm marks crossed per minute	27.16 cm marks crossed per minute	45.1*** cm marks crossed per minute	–	–	–	–
